{"source": "patent US8809619B2", "about": "“Knockout mice for a P450 gene cluster” (ITI Scotland Limited, priority 2007, dated 2014)", "key": {"Cyp3a [1]": {"system": "Cyp3a", "test": "Oxidation of BFC by liver and intestinal microsomes", "type": "in vitro ADME, mouse"}, "[2]": {"method": "The study consisted of 4 groups with 4 animals per group. […] On day 4 of the study midazolam (1 mg/kg) was administered by IP injection and 10 μL blood samples were collected at 10, 20, 40, 60, 120, 240 and 360 min for PK analysis (Table 1)."}, "Cyp2b10 and Cyp2c29": {"system": "Cyp2b10 and Cyp2c29", "test": "16β-Hydroxylation of testosterone by liver microsomes", "settings": "liver microsomes of both transgenic strains"}, "Cyp3a [3]": {"system": "Cyp3a", "test": "6β-Hydroxylation of testosterone by liver and intestinal microsomes", "settings": "Cyp3a cluster KO and Cyp3a11 KO"}, "[4]": {"test": "1'-Hydroxymidazolam pharmacokinetics after IV or oral midazolam", "settings": "for Decrease in AUC for 1'-hydroxymidazolam compared to wild type: midazolam 1 mg/kg IV, rifampicin pre-treated", "method": "On day 4 of the study midazolam (1 mg/kg) was administered by IV injection to animals from groups 1-6 and orally (2 mg/kg) to mice from groups 7-9. Blood samples were collected at 2, 5, 10, 20, 30, 45, 60, 90, 120 and 150 min (serial bleeds) after IV dosing, at 10, 20, 40, 60, 90, 120, 240 and 360 min after the oral dosing, for PK analysis (Table 3).\nTotal concentrations of 1′-hydroxymidazolam were measured following pre-treatment of blood with B-glucuronidase. The pharmacokinetics of the 1′-hydroxymidazolam after the IV injection of the parent compound are presented on FIG. 1s."}, "Cyp3a [5]": {"system": "Cyp3a", "test": "Oxidation of DBF by liver and intestinal microsomes"}, "Cyp3a [6]": {"system": "Cyp3a", "test": "Oxidation of 7-BQ by liver microsomes"}, "Cyp1a1 and Cyp1a2": {"system": "Cyp1a1 and Cyp1a2", "test": "Ethoxyresorufin de-ethylation activity (EROD) of liver microsomes", "type": "in vivo, mouse", "settings": "both strains", "from_the_text": "(B)—Ethoxyresorufin de-ethylation; (C)—methoxyresorufin de-methylation. Data are mean±SD (n=4).\nEthoxyresorufin de-ethylation activity (EROD) was similar in both Cyp3a cluster KO and wild type mouse liver microsomes. EROD is catalysed by both Cyp1a 1 and Cyp1a2 isoforms, with Cyp1a1 making the major contribution. […] There was no difference in methoxyresoryfin de-methylation (MROD) activity between wild type and Cyp3a cluster KO mice. MROD is catalysed predominantly by Cyp1a2."}}, "note": "“Also recorded” adds a separate entry of the source.", "data": [{"smiles": "O=c1cc(C(F)(F)F)c2ccc(OCc3ccccc3)cc2o1", "note": "[BFC, 7-benzyloxy-4-trifluoromethylcoumarin]", "values": [{"measurement": "BFC activity between liver microsomal samples", "setting": "Cyp3a [1]; C57BL/6J, Cyp3a cluster KO, Cyp3a11 KO liver microsomes", "result": "no difference"}, {"measurement": "BFC oxidation in intestinal microsomes of transgenic mice", "setting": "Cyp3a [1]; intestinal microsomes", "result": "small but statistically significant increase"}]}, {"smiles": "Cc1ncc2n1-c1ccc(Cl)cc1C(c1ccccc1F)=NC2", "note": "[midazolam]", "values": [{"measurement": "Absorption after IP administration", "setting": "[2]; midazolam 1 mg/kg IP, both mouse strains", "result": "fast absorption"}, {"measurement": "Midazolam AUC / PK, Cyp3a cluster KO compared to wild type", "setting": "[2]; midazolam 1 mg/kg IP, control (untreated) animals", "result": "similar; also recorded: no difference"}, {"measurement": "Difference in midazolam AUC, Cyp3a cluster KO vs wild type", "setting": "[2]; rifampicin treated mice", "result": 1.6, "unit": "times"}]}, {"smiles": "C[C@]12CC[C@H]3[C@@H](CCC4=CC(=O)CC[C@@]43C)[C@@H]1CC[C@@H]2O", "note": "[testosterone]", "values": [{"measurement": "16β-Hydroxylation of testosterone compared to wild type", "setting": "Cyp2b10 and Cyp2c29", "result": "increased"}, {"measurement": "6β-hydroxylation of testosterone compared to wild type", "setting": "Cyp3a [3]", "result": "significant decrease"}]}, {"smiles": "OCc1ncc2n1-c1ccc(Cl)cc1C(c1ccccc1F)=NC2", "note": "[1′-hydroxymidazolam]", "values": [{"measurement": "Decrease in AUC for 1'-hydroxymidazolam compared to wild type", "setting": "[4]; Cyp3a11 KO", "result": "~2", "unit": "times"}, {"measurement": "Decrease in AUC for 1'-hydroxymidazolam compared to wild type", "setting": "[4]; Cyp3a cluster KO", "result": "~3", "unit": "times"}, {"measurement": "Terminal phase elimination of 1'-hydroxymidazolam compared to other strains", "setting": "[4]; Cyp3a cluster KO, midazolam IV", "result": "slightly slower elimination"}]}, {"smiles": "O=C(OCc1ccccc1)c1ccccc1-c1c2ccc(=O)cc-2oc2cc(OCc3ccccc3)ccc12", "note": "[DBF, dibenzylfluorescein]", "values": [{"measurement": "DBF oxidation by liver microsomes compared to wild type", "setting": "Cyp3a [5]; Cyp3a cluster KO and Cyp3a11 KO", "result": "pronounced decrease"}, {"measurement": "DBF oxidation by intestinal microsomes, wild type vs knockout strains", "setting": "Cyp3a [5]; intestinal microsomes", "result": "no statistically significant difference"}]}, {"smiles": "c1ccc(COc2ccc3cccnc3c2)cc1", "note": "[7-BQ, 7-benzyloxyquinoline]", "values": [{"measurement": "Activity towards 7-BQ in Cyp3a cluster KO, level compared to the wild type mice", "setting": "Cyp3a [6]; conclusion statement", "result": "below 20%"}, {"measurement": "7-BQ oxidation in Cyp3a cluster KO liver microsomes, % of corresponding C57BL/6J group", "setting": "Cyp3a [6]; control animals", "result": 18, "unit": "%"}, {"measurement": "7-BQ oxidation in Cyp3a cluster KO liver microsomes, % of corresponding C57BL/6J group", "setting": "Cyp3a [6]; rifampicin treated animals", "result": 6.7, "unit": "%"}]}, {"smiles": "CO[C@H]1/C=C/O[C@@]2(C)Oc3c(C)c(O)c4c(O)c(c(/C=N/N5CCN(C)CC5)c(O)c4c3C2=O)NC(=O)/C(C)=C\\C=C\\[C@H](C)[C@H](O)[C@@H](C)[C@@H](O)[C@@H](C)[C@H](OC(C)=O)[C@@H]1C", "note": "[rifampicin]", "values": [{"measurement": "Effect of rifampicin treatment on midazolam elimination", "setting": "[2]; rifampicin 60 mg/kg 3 daily doses, midazolam 1 mg/kg IP day 4, both strains, higher effect in C57BL/6J", "result": "accelerated elimination"}, {"measurement": "EROD metabolism after rifampicin", "setting": "Cyp1a1 and Cyp1a2", "result": "small induction"}]}]}
